Results reported in patent US7223796B2, “Acyl-4-carboxyphenylurea derivatives, processes for preparing them and their use” (Sanofi-aventis Deutschland GmbH, priority 2002, dated 2007).

Assays:
[1] = target: T1, Human glycogen phosphorylase a (Homo sapiens, UniProt P06737); assay: Glycogen phosphorylase a activity test; assay type: biochemical; settings: read-out: % inhibition at 10 μM; 10 μM test substance; GPa measured in reverse direction (glycogen synthesis from glucose 1-phosphate, phosphate release)
T1 sequence (P06737 2-847 limits assumed): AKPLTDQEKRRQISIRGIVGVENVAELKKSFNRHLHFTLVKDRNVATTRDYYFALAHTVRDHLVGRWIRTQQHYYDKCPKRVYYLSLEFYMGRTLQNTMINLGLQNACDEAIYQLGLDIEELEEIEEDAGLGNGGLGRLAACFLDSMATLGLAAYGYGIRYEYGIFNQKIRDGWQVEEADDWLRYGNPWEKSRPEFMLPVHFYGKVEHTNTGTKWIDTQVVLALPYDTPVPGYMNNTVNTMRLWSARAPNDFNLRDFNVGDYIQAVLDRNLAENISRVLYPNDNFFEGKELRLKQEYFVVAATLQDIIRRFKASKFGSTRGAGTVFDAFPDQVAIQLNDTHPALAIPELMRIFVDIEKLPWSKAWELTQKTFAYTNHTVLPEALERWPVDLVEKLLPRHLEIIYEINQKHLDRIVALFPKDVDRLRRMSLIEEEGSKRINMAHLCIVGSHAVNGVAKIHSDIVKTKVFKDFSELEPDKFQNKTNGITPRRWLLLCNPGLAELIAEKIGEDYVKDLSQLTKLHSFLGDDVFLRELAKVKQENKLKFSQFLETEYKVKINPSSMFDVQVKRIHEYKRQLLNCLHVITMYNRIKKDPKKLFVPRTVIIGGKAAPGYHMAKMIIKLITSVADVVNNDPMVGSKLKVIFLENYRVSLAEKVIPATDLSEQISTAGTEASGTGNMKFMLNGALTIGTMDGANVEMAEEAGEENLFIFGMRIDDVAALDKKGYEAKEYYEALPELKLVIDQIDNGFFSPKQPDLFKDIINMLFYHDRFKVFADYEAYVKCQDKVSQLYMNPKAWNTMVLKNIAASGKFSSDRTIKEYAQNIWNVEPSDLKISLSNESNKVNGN
Description: Glycogen Phosphorylase a Activity Test
All the reactions were carried out as duplicate determinations in 96-well microtiter plates (Half Area Plates, Costar No. 3696), with the change in absorption due to the formation of the reaction product being measured, at the wavelength specified below, in a Multiscan Ascent Elisa Reader (Lab Systems, Finland). In order to measure the enzymic activity of GPa in the reverse direction, the conversion of glucose 1-phosphate into glycogen and inorganic phosphate was measured in accordance with the general method of Engers et al. (Engers H D, Shechosky S, Madsen N B, Can J Biochem 1970 July;48(7): 746–754) but with the following modifications: Human glycogen phosphorylase a (for example containing 0.76 mg of protein/ml (Aventis Pharma Deutschland GmbH), dissolved in buffer solution E (25 mM β-glycerophosphate, pH 7.0, 1 mM EDTA and 1 mM dithiothreitol), was diluted with buffer T (50 mM Hepes, pH 7.0, 100 mM KCl, 2.5 mM EDTA, 2.5 mM MgCl2.6H2O), and addition of 5 mg of glycogen/ml, to a concentration of 10 μg of protein/ml. […] The basal value of the activity of the glycogen phosphorylase a in the absence of test substance was determined by adding 10 μl of buffer solution T (0.1% DMSO). […] After 60 minutes of incubation at 45° C., the absorption was measured at 820 nm. […]

With `O=C(NC(=O)c1cc(F)c(F)cc1Cl)Nc1ccc(C(=O)O)cc1OC(F)(F)F` [Example 48, 4-[3-(2-Chloro-4,5-difluorobenzoyl)ureido]-3-trifluoromethoxybenzoic acid] the inhibition at 10 µM [1] was 99% and the melting point was 236 °C.
